The text below walks through data of patent US10463664B2, “Inhibitors of HSV nucleotidyl transferases and uses therefor” (Saint Louis University, priority 2013, dated 2019).

For data set [1] the following is noted: mouse, in vivo; cited from earlier work.
Another data set has as its system HSV-1. Briefly: Topical treatment of mice infected with HSV-1 on the cornea. In kind it is in vivo. The conditions noted are these: summary statement. As for the experimental part:
Compounds were administered at 1 μg/eye in 10% DMSO. Two mice were treated with 10% DMSO as a negative control. The corneal surface was swabbed once per day on days 1, 2, 4 and 5 post-infection and titer of virus shed from the epithelium was determined by standard plaque assay. On the fifth day post-infection mice were euthanized and the trigeminal ganglia (TG) and brainstems were dissected. The tissues were disrupted and virus in them quantified by plaque assay. […] Weight of individual mice was recorded daily. […] Saline was a negative control. On the fifth day post-infection mice were euthanized and the trigeminal ganglia (TG) and brainstems were dissected. The tissues were disrupted and virus in them quantified by plaque assay.
Body weight was monitored daily post-infection as a sensitive indicator of overall health (FIG. 12).
Infected mice treated with saline served as a negative control.

A short description of data set [2]: Single dose pharmacokinetic study after peroral ciclopirox olamine. In kind it is in vivo, BALB/c mice. The conditions noted are these: 100 mg/kg oral gavage. As for the experimental part:
Single dose pharmacokinetic study after peroral treatment with ciclopirox Olamine. Six week old BALB/c mice were treated with 100 mg/kg ciclopirox olamine by oral gavage. This is well below the oral toxicity level in mice of 1740 mg/kg (Spectrum Chemicals MSDS). At 15 min, 30 min, 1 h, 3 h and 5 h post-treatment, blood was collected from pairs of mice and the serum separated. Mice were then euthanized and trigeminal ganglia (TG), brainstems and corneas were dissected and frozen until tissue extraction was performed and the extracts analyzed by mass spectroscopy. Standardization to ciclopirox olamine was achieved using compound spiked into a matrix of relevant tissue homogenate from untreated mice.
Ciclopirox olamine tissue concentrations (μM) after oral gavage. Ciclopirox olamine has previously been used to treat mice by oral gavage (25 to 40 mg/kg) for up to 60 days, but, assessment of penetration into the cornea and nervous system after oral gavage needed to be evaluated as well as tissue concentration over time to estimate appropriate dosing. In a single dose pharmacokinetic study, mice were treated with 100 mg/kg ciclopirox olamine by oral gavage. Pairs of mice were euthanized at various times post-treatment. Ciclopirox olamine concentrations in plasma, corneas, trigeminal ganglia and brainstems were determined by mass spectroscopy (FIG. 10). […] Ciclopirox olamine concentrations in cornea and nervous system tissues were only ˜5-fold lower than that in the plasma and remained above the estimated EC90 until 5 hours post-treatment.

Consider `Cc1cc(C2CCCCC2)n(O)c(=O)c1` [Compound 41-E, Ciclopirox ethanolamine], for which, in data set [1], the “Oral toxicity level in mice” value is listed as 1740 mg/kg. The “Overall health of mice as shown by maintenance of body weight” value in the data set on HSV-1 is listed as “significantly improved the overall health”. Further, in data set [2], the “Concentrations in cornea and nervous system tissues, fold lower than plasma” value was approximately 5 fold; the “Plasma concentration at time of uptake” value was approximately 30 µM. Also, the “Free plasma concentration after 5 hours, fold above the estimated EC90 against HSV-1” value in data set [2] (5 hours) was 10 fold.
